Among the data in patent US20250092031A1, “RIPK3 INHIBITORS AND METHODS OF USE” (Momentum Therapeutics, Inc., priority 2023, published 2025) are IC50 values, retold here.

In test [1] the target is T1, RIPK3 (Homo sapiens, UniProt Q9Y572).
T1 construct: purchased Reaction Biology Corporation (RBC), Malvern, USA (contract assay service)
Briefly: RIPK3 kinase assay (radiometric HotSpot, Reaction Biology Corporation). It counts as biochemical. On the procedure:
The assays were performed in Reaction Biology Corporation (RBC), Malvern, USA. Compounds were diluted with DMSO to a final stock concentration of 10 mM and then were tested in a 10-dose IC50 mode with a 3-fold serial dilution starting at […]. All the reactions were carried out at 10 μM ATP and MBP 20 μM as substrates. RIPK3 activity was determined using radiometric HotSpot™ kinase assay protocol and IC50 values were calculated use GraphPad Prism software.

Test [2] relates to Murine L929 cells. Briefly: Necroptosis inhibition assay in L929 cells (mTNFα + zVAD, Sytox Green). It is filed as cell-based. Particulars: Mus musculus, 10 ng/ml mTNFα and 20 μM zVAD, 6 hours, Sytox Green fluorescence. In a few lines:
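Murine L929 cells, treated 48 h after seeding with 10 ng/ml mTNFα plus 20 μM zVAD and compound ([…]), 6 h at 37° C. Necroptosis read by Sytox Green fluorescence (500ex/530em), scaled between 0.1% DMSO and TNFα+zVAD wells; IC50 from inhibition curves.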

The subject of test [3] is Human HT-29 cells. As to the kind of experiment: Necroptosis inhibition assay in HT-29 cells (hTNFα + zVAD + SMAC mimetic, Sytox Green/Hoechst). Particulars: 10 ng/ml hTNFα, 20 μM zVAD and 100 nM SMAC mimetic, 6 hours, Sytox/Hoechst positive cells, read-out: HT29 necroptosis inhibition IC50. It counts as cell-based. In a few lines:
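Cells stimulated 48 h after seeding with 10 ng/ml hTNFα, 20 μM zVAD and 100 nM SMAC mimetic plus compound, 6 h at 37 °C. Sytox Green and Hoechst positive cells counted by imaging; inhibition scaled between DMSO-treated (100%) and stimulated-only (0%) wells, IC50 by curve fitting.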

What is called IC50 is the concentration needed to halve the response being measured.

T1 sequence (Q9Y572 whole entry): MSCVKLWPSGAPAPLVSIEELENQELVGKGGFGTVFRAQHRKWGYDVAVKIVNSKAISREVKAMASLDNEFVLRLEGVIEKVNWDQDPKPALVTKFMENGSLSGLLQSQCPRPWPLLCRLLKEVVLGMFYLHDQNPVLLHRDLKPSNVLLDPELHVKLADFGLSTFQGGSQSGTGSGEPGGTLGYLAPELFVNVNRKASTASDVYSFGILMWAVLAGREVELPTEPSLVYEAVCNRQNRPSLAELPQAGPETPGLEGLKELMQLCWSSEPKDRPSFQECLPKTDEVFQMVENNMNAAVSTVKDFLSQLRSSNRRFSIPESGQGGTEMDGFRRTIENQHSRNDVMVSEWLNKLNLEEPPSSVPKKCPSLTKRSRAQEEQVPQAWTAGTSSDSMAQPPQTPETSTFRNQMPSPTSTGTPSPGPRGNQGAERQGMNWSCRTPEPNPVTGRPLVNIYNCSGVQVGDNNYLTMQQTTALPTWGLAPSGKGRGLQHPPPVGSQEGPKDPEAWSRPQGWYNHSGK

Turning to `O=C(c1ccc(-c2ccc3c(Nc4ccc5scnc5c4)ccnc3c2)c(F)c1)N1CC2(CNC2)C1` [Compound 284, (4-(4-(benzo[d]thiazol-5-ylamino)quinolin-7-yl)-3-fluorophenyl)(2,6-diazaspiro[3.3]heptan-2-yl)methanone], the half-inhibitory concentration (IC50) turned out to be 1.13 nM in test [1], 960 nM in test [2] and 386 nM in test [3].

With `O=C(c1ccc(-c2ccc3nccc(Nc4ccc5scnc5c4)c3c2)c(F)c1)N1CC2(CNC2)C1` [Compound 285, (4-(4-(benzo[d]thiazol-5-ylamino)quinolin-6-yl)-3-fluorophenyl)(2,6-diazaspiro[3.3]heptan-2-yl)methanone], the IC50 in test [1] came out at 3.14 nM; in test [2], 2710 nM; in test [3], 129 nM.

On to `Fc1cc(CN2CC3(CNC3)C2)ccc1-c1ccc2nccc(Nc3ccc4scnc4c3)c2c1` [Compound 292, N-(6-(4-((2,6-diazaspiro[3.3]heptan-2-yl)methyl)-2-fluorophenyl)quinolin-4-yl)benzo[d]thiazol-5-amine], for which the values for the IC50 in test [1], in test [2] and in test [3] were 3.67 nM, 1780 nM and 159 nM, respectively.
